From article PMC7529893, “Structural basis for substrate recognition and chemical inhibition of oncogenic MAGE ubiquitin ligases” (Nature Communications, 2020)
Entries after “also recorded” stand apart in the source; their conditions may differ.

What was measured:
His-SUMO-MAGE-A11 MHD = target: T1, His-SUMO-MAGE-A11 MHD (Homo sapiens, UniProt P43364); assay: Nano-differential scanning fluorimetry (NanoDSF); format: binding; settings: six-point dose response, protein 10 µM
T1 construct: made in house; host or cells: bacteria
T1 sequence (P43364 218-429): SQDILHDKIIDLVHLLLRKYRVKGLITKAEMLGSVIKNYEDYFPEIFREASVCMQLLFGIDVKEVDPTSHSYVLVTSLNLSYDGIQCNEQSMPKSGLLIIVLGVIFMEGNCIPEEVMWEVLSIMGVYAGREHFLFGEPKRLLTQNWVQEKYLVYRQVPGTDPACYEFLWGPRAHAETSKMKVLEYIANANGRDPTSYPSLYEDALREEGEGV
Description: For NanoDSF measurements, a Prometheus NT.48 instrument (NanoTemper Technologies) was used to determine the melting temperatures. Triplicate samples were prepared in a standard 384-well PCR plate with His-SUMO-MAGE-A11 at 10 µM and ligand concentrations as noted. After incubating the protein and ligands for at least 30 min, capillaries were filled with 10 μL of sample and placed on the sample holder. DMSO was used as a negative reference control while PCF11_6 peptide was used as a positive control validating the assay. A temperature gradient of 1 °C min^−1 from 25 to 95 °C was applied and the intrinsic protein fluorescence at 330 and 350 nm was recorded. The 350 nm to 330 nm ratios of fluorescence measurements were used to calculate the Tm values of each sample using the Nanotemper PR.ThermControl software. Data were further analyzed and plotted using GraphPad Prism (v 8.3.1).

[1] = target: T2, MAGE-A11:PCF11 interaction (GST-MAGE-A11 MHD and FAM-PCF11_4) (Homo sapiens, UniProt P43364); assay: TR-FRET dose response test of compounds for disruption of MAGE-A11:PCF11 binding; settings: Fig. 5c, 5f, Supplementary Fig. 4e legend; read-out: IC50, TR-FRET competition, disruption of MAGE-A11:PCF11 binding
T2 construct: GST-MAGE-A11 MHD (human MAGE-A11 MHD amino acid 218-429); made in house; host or cells: E. coli BL21(DE3)
T2 sequence (P43364 218-429): T1 sequence (P43364 218-429)
Summary of the method: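 Competition of compounds against binding of FAM-PCF11_4 peptide to GST-MAGE-A11 MHD, detected with Tb-anti-GST, in 50 mM Tris pH 7.5, 20 mM MgCl2, 0.1 mg/ml BSA, 1 mM DTT. 90 min at ~25 °C; 520/490 nm emission ratio (340 nm excitation) fitted for IC50.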

| Compound | thermal stabilization of MAGE-A11 (NanoDSF) (His-SUMO-MAGE-A11 MHD; listed as SJ521054) | IC50 [1] [nM] | thermal stabilization of MAGE-A11 (NanoDSF) (His-SUMO-MAGE-A11 MHD; listed as SJ1008066) |
| --- | --- | --- | --- |
| FC(F)(F)c1ccc2c(NCCCNCc3ccc4[nH]ccc4c3)ccnc2c1 [SJ000521054-02] | showed stabilization of MAGE-A11; also recorded: stabilized MAGE-A11 | 400 | – |
| c1ccc2c(NCCCNCc3ccc4[nH]ccc4c3)ccnc2c1 [SJ001008066-01] | – | 130 | showed stabilization of MAGE-A11; also recorded: stabilized MAGE-A11 |
